Data on two compounds can be found in patent US12318373B2, “Methods of treating gastrointestinal stromal tumors” (Deciphera Pharmaceuticals, LLC, priority 2019, dated 2025).

Data set [1] can be described thus: Example 8: coadministration with proton-pump inhibitor (pantoprazole), exposure. The class given is in vivo. The settings on record: ripretinib coadministered with pantoprazole. How it is done: The effect of a proton-pump inhibitor on the exposure of ripretinib was evaluated.
A short description of data set [2]: Example 7: coadministration with strong CYP3A inhibitor (itraconazole), exposure. Format: in vivo. To be noted: coadministration of ripretinib with itraconazole.
A short description of data set [3]: Example 9: food effect (high-fat meal) on exposure. The settings on record: 150 mg dose with a high-fat meal. Format: in vivo. The procedure:
The effect of a high-fat breakfast on ripretinib and Compound A exposure was evaluated. A high fat meal consisted of approximately 150, 250, and 500-600 calories from protein, carbohydrate, and fat, respectively. […] Therefore, ripretinib may be taken with or without food at approximately same time each day.

Data set [4] relates to GIST with KIT exon 11 primary mutations. To be noted: cited from earlier work.

In the case of `CCn1c(=O)c(-c2cc(NC(=O)Nc3ccccc3)c(F)cc2Br)cc2cnc(N)cc21` [Compound A], in data set [1], the “Difference in plasma exposure” value is listed as “No clinically significant differences”. Further, in data set [2], the “Increase in AUC0-inf” value is reported as 99% and the “Increase in Cmax” value is recorded as “no change”. Also, in data set [3], the “AUC0-24h higher by” value came out at 47% and the “Cmax higher by” value is 66%.

As to `Cc1ccc(NC(=O)c2ccc(CN3CCN(C)CC3)cc2)cc1Nc1nccc(-c2cccnc2)n1` [imatinib], in data set [4] (adjuvant setting), the 2-year relapse-free survival is about 90%. In data set [4] (metastatic setting), the Median event-free survival result is on record as “under 2 years”.
